In patent US20260042764A1, “COMPOSITIONS AND METHODS FOR INHIBITION OF KRAS” (TheRas, Inc., priority 2022, published 2026):

Columns and labels:
SW620 cells (KRAS G12V) = assay: Cell-based pERK HTRF assay in SW620 cell (Biological Example 4); conditions: pERK HTRF
How it was run: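 Read-out: HTRF pERK signal (excitation 320 nm, emission 615 nm) from lysates of SW620 cells after 4 h compound exposure. Dose range was 9 points, half-log steps from 1 μM, in 0.25% DMSO; antibody incubation ran 4–24 h at room temperature.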

GP2d cells (KRAS G12D) = assay: Cell-based pERK HTRF assay in GP2d cell (Biological Example 2); conditions: GP2d (KRAS G12D) cells, pERK HTRF
How it was run: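 Phospho-ERK in lysed cells was detected by HTRF using Eu cryptate and d2 antibodies, read between 4 and 24 h at room temperature. Prior to lysis, KRAS G12D GP2d cells, seeded the day before in DMEM with 10% FBS, were exposed to compounds for 60 min. Compounds were tested as 9-point half-log curves from 1 μM or 100 nM top, with 0.25% DMSO.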

[1] = target: T1, Avi-KRAS G12V (1-169) GppNHp/RAF1 RBD-3xFLAG (52-151) (Homo sapiens, UniProt P01116, G12V); assay: Raf1-KRAS G12V-GppNHP disruption HTRF assay (Biological Example 1); assay type: binding
T1 construct: Avi-KRAS G12V (1-169)
T1 sequence (P01116 1-169 isoform P01116-2 G12V): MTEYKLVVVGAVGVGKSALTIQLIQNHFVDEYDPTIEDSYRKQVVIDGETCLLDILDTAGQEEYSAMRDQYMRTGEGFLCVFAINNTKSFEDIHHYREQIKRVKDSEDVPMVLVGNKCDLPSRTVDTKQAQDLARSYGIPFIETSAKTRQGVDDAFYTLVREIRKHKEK
How it was run: (§1)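 Percent activity versus DMSO (100%) was derived from HTRF signal after KRAS–RAF1 RBD protein mix was incubated 1 h at room temperature with shaking and detection reagents were added for a further 1 h.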

[2] = target: T2, Avi-KRAS G12D (1-169) GppNHp/RAF1 RBD-3xFLAG (52-151) (Homo sapiens, UniProt P01116, G12D); assay: Raf1-KRAS G12D-GppNHP disruption HTRF assay (Biological Example 1); assay type: binding
T2 construct: Avi-KRAS G12D (1-169)
T2 sequence (P01116 1-169 isoform P01116-2 G12D): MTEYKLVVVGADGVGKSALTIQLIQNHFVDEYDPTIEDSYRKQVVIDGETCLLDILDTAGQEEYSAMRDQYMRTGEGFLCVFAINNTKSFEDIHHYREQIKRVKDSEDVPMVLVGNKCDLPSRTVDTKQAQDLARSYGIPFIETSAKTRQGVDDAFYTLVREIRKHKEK
How it was run: as §1

[3] = target: T3, Avi-KRAS WT (1-169) GppNHp/RAF1 RBD-3xFLAG (52-151) (Homo sapiens, UniProt P01116); assay: Raf1-KRAS WT-GppNHP disruption HTRF assay (Biological Example 1); assay type: binding
T3 construct: Avi-KRAS WT (1-169)
T3 sequence (P01116 1-169 isoform P01116-2): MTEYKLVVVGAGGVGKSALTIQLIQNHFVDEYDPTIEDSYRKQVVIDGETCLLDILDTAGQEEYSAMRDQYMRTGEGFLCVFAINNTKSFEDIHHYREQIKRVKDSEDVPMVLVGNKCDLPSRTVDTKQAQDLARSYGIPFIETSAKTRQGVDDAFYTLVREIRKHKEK
How it was run: as §1

[4] = target: T4, Avi-KRAS G12R (1-169) GppNHp/RAF1 RBD-3xFLAG (52-151) (Homo sapiens, UniProt P01116, G12R); assay: Raf1-KRAS G12R-GppNHP disruption HTRF assay (Biological Example 1); assay type: binding
T4 construct: Avi-KRAS G12R (1-169)
T4 sequence (P01116 1-169 isoform P01116-2 G12R): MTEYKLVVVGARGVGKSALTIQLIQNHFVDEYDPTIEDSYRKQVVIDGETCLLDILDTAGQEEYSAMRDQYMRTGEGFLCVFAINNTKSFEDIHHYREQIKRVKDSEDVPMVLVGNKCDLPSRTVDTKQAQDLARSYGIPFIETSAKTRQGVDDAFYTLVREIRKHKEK
How it was run: as §1

[5] = KRAS G12V, GppNHp-loaded, Table 11
[6] = KRAS G12D, GppNHp-loaded, Table 11
[7] = KRAS WT, GppNHp-loaded, Table 11
[8] = KRAS G12R, GppNHp-loaded, Table 11
[9] = Homo sapiens, SW-620, SW620 (KRAS G12V) cells, class symbols
[10] = KRAS G12V, GppNHp-loaded, class symbols
[11] = KRAS G12D, GppNHp-loaded, class symbols
[12] = KRAS WT, GppNHp-loaded, class symbols
[13] = KRAS G12R, GppNHp-loaded, class symbols
[14] = Homo sapiens, SW-620, SW620 (KRAS G12V) cells

Structure (SMILES) | IC50 (SW620 cells (KRAS G12V); [9]) | IC50 (GP2d cells (KRAS G12D); GP2d, class symbols) | IC50 [1, 10] | IC50 [2, 11] | IC50 [3, 12] | IC50 [4, 13] | IC50 (SW620 cells (KRAS G12V); [14]) | IC50 (GP2d cells (KRAS G12D); GP2d) | IC50 ([1]; KRAS G12V-GppNHp/RAF1 RBD HTRF) | IC50 ([2]; KRAS G12D-GppNHp/RAF1 RBD HTRF) | IC50 ([3]; KRAS WT-GppNHp/RAF1 RBD HTRF) | IC50 ([4]; KRAS G12R-GppNHp/RAF1 RBD HTRF) | further results
CN(c1nc(OC[C@@]23CCCN2C[C@H](F)C3)nc2c(F)c(-c3ccc(F)c4sc(N)c(C#N)c34)c(C(F)(F)F)cc12)[C@H]1CCS(=O)(=O)C1 (single isomer, unassigned) [Compound 220] |  |  |  |  |  |  |  |  |  |  |  |  | IC50 (SW620 cells (KRAS G12V); SW620 (KRAS G12V) cells): > 1000 nM; IC50 (GP2d cells (KRAS G12D)): > 1000 nM; IC50 [1, 5]: > 10000 nM; IC50 [2, 6]: > 10000 nM; IC50 [3, 7]: > 10000 nM; IC50 [4, 8]: > 10000 nM
COC(=O)N1CC[C@H](N(C)c2nc(OC[C@@]34CCCN3C[C@H](F)C4)nc3c(F)c(-c4ccc(F)c5sc(N)c(C#N)c45)c(C(F)(F)F)cc23)C1 (atropisomer, axis not shown) [Compound 756] | < 100 nM | < 100 nM | < 100 nM | < 100 nM | < 100 nM | < 100 nM |  |  |  |  |  |  | 
CCC(=O)N1CC[C@@H](N(CC)c2nc(OC[C@@]34CCCN3C[C@H](F)C4)nc3c(F)c(-c4ccc(F)c5sc(N)c(C#N)c45)c(Cl)cc23)[C@@H]1C [Compound 417] |  |  |  |  |  |  | 100 to 1000 nM | < 100 nM | 1000 to 10000 nM | 100 to 1000 nM | 100 to 1000 nM | 1000 to 10000 nM | 
C[C@@H]1Cn2nc(C(=O)N(C)C)cc2CN1c1nc(OC[C@@]23CCCN2C[C@H](F)C3)nc2c(F)c(-c3ccc(F)c4sc(N)c(C#N)c34)c(C(F)(F)F)cc12 [Compound 510] |  |  |  |  |  |  | < 100 nM | < 100 nM | 1000 to 10000 nM | 1000 to 10000 nM | 1000 to 10000 nM | 100 to 1000 nM | 
CCN(c1nc(OC[C@@]23CCCN2C[C@H](F)C3)nc2c(F)c(-c3ccc(F)c4sc(N)c(C#N)c34)c(C(F)(F)F)cc12)[C@H]1C[C@H](COC)N(C(=O)N(C)C)C1 (atropisomer, axis not shown) [Compound 717] | < 100 nM | < 100 nM | 100 to 1000 nM | 100 to 1000 nM | 100 to 1000 nM | 100 to 1000 nM |  |  |  |  |  |  | 
CCN(c1nc(OC[C@@]23CCCN2C[C@H](F)C3)nc2c(F)c(-c3ccc(F)c4sc(N)c(C#N)c34)c(C(F)(F)F)cc12)[C@H]1CCN(C(=O)[C@H]2CC23CC3)C1 (atropisomer, axis not shown) [Compound 772] | < 100 nM | < 100 nM | < 100 nM | < 100 nM | < 100 nM | < 100 nM |  |  |  |  |  |  | 
N#Cc1c(N)sc2c(F)ccc(-c3c(C(F)(F)F)cc4c(N5CCCC6(C5)NC(=O)NC6=O)nc(OC[C@@]56CCCN5C[C@H](F)C6)nc4c3F)c12 (stereo partly drawn) [Compound 248] |  |  |  |  |  |  | 100 to 1000 nM | 100 to 1000 nM |  |  |  |  | IC50 [1, 5]: 100 to 1000 nM; IC50 [2, 6]: 100 to 1000 nM; IC50 [3, 7]: 100 to 1000 nM; IC50 [4, 8]: 100 to 1000 nM
CCN(c1nc(OC[C@@]23CCCN2C[C@H](F)C3)nc2c(F)c(-c3ccc(F)c4sc(N)c(C#N)c34)c(C(F)(F)F)cc12)[C@H]1CCN(C(=O)OC2CN(C(C)=O)C2)C1 (atropisomer, axis not shown) [Compound 721] | < 100 nM | < 100 nM | < 100 nM | < 100 nM | < 100 nM | < 100 nM |  |  |  |  |  |  | 
CCN(c1nc(OC[C@@]23CCCN2C[C@H](F)C3)nc2c(F)c(-c3ccc(F)c4sc(N)c(C#N)c34)c(C(F)(F)F)cc12)[C@H]1CCN(C(=O)[C@@H]2CC23CC3)C1 (atropisomer, axis not shown) [Compound 774] | < 100 nM | < 100 nM | 100 to 1000 nM | 100 to 1000 nM | 100 to 1000 nM | 100 to 1000 nM |  |  |  |  |  |  | 
CCC(=O)N1CC[C@@](C)(N(C)c2nc(OC[C@@]34CCCN3C[C@H](F)C4)nc3c(F)c(-c4ccc(F)c5sc(N)c(C#N)c45)c(C(F)(F)F)cc23)[C@H]1C [Compound 343] |  |  |  |  |  |  | 100 to 1000 nM | 100 to 1000 nM | 1000 to 10000 nM | 1000 to 10000 nM | 1000 to 10000 nM | > 10000 nM | 
CCN(c1nc(OC[C@@]23CCCN2C[C@H](F)C3)nc2c(F)c(-c3ccc(F)c4sc(N)c(C#N)c34)c(C(F)(F)F)cc12)[C@H]1C[C@@H](COC)N(C(=O)C2CC2)C1 (atropisomer, axis not shown) [Compound 650] | < 100 nM | < 100 nM | 100 to 1000 nM | 100 to 1000 nM | 100 to 1000 nM | 100 to 1000 nM |  |  |  |  |  |  | 
CN(C[C@H](F)CO)c1nc(OC[C@@]23CCCN2C[C@H](F)C3)nc2c(F)c(-c3ccc(F)c4sc(N)c(C#N)c34)c(C(F)(F)F)cc12 [Compound 216] |  |  |  |  |  |  | < 100 nM | < 100 nM |  |  |  |  | IC50 [1, 5]: 100 to 1000 nM; IC50 [2, 6]: 100 to 1000 nM; IC50 [3, 7]: 100 to 1000 nM; IC50 [4, 8]: 100 to 1000 nM
C[C@@H]1CN(c2nc(OC[C@@]34CCCN3C[C@H](F)C4)nc3c(F)c(-c4ccc(F)c5sc(N)c(C#N)c45)c(C(F)(F)F)cc23)Cc2cc(C(=O)N(C)C)nn21 [Compound 423] |  |  |  |  |  |  | < 100 nM | < 100 nM | 100 to 1000 nM | 100 to 1000 nM | 100 to 1000 nM | 100 to 1000 nM | 
C[C@@H]1[C@H](N(C)c2nc(OC[C@]34C[C@@H](F)CN3CC3(CC3)C4)nc3c(F)c(-c4ccc(F)c5sc(N)c(C#N)c45)c(Cl)cc23)CCN1C(=O)C1CC1 [Compound 593] | 100 to 1000 nM | 100 to 1000 nM | 1000 to 10000 nM | 1000 to 10000 nM | 1000 to 10000 nM | 1000 to 10000 nM |  |  |  |  |  |  | 
N#Cc1c(N)sc2c(F)ccc(-c3c(C(F)(F)F)cc4c(N5CC6CC(C5)O6)nc(OC[C@@]56CCCN5C[C@@]5(CC5(F)F)C6)nc4c3F)c12 [Compound 366] |  |  |  |  |  |  | < 100 nM | < 100 nM | 1000 to 10000 nM | 100 to 1000 nM | 100 to 1000 nM | 1000 to 10000 nM | 
COCCN(C)c1nc(OC[C@@]23CCCN2C[C@H](F)C3)nc2c(F)c(-c3ccc(F)c4sc(N)c(C#N)c34)c(C(F)(F)F)cc12 [Compound 167] |  |  |  |  |  |  | < 100 nM | < 100 nM |  |  |  |  | IC50 [1, 5]: 100 to 1000 nM; IC50 [2, 6]: 100 to 1000 nM; IC50 [3, 7]: 100 to 1000 nM; IC50 [4, 8]: 100 to 1000 nM
N#Cc1c(N)sc2c(F)ccc(-c3c(C(F)(F)F)cc4c(N5CCn6nncc6C5)nc(OC[C@@]56CCCN5C[C@H](F)C6)nc4c3F)c12 [Compound 243] |  |  |  |  |  |  | < 100 nM | < 100 nM |  |  |  |  | IC50 [1, 5]: 100 to 1000 nM; IC50 [2, 6]: 100 to 1000 nM; IC50 [3, 7]: 100 to 1000 nM; IC50 [4, 8]: 100 to 1000 nM
CCN(c1nc(OC[C@@]23CCCN2C[C@H](F)C3)nc2c(F)c(-c3ccc(F)c4sc(N)c(C#N)c34)c(C(F)(F)F)cc12)[C@H]1CCN(C(=O)[C@@H]2C[C@@H]2F)C1 (atropisomer, axis not shown) [Compound 691] | < 100 nM | < 100 nM | < 100 nM | < 100 nM | < 100 nM | < 100 nM |  |  |  |  |  |  | 
CCN(c1nc(OC[C@@]23CCCN2C[C@H](F)C3)nc2c(F)c(-c3ccc(F)c4sc(N)c(C#N)c34)c(C(F)(F)F)cc12)[C@@H]1CCN(C(=O)OC)[C@@H]1C [Compound 489] |  |  |  |  |  |  | < 100 nM | < 100 nM | 100 to 1000 nM | 100 to 1000 nM | 100 to 1000 nM | 100 to 1000 nM | 
CCN(c1nc(OC[C@@]23CCCN2C[C@H](F)C3)nc2c(F)c(-c3ccc(F)c4sc(N)c(C#N)c34)c(C(F)(F)F)cc12)[C@H]1CCN(C(=O)c2cnco2)C1 (atropisomer, axis not shown) [Compound 708] | < 100 nM | < 100 nM | < 100 nM | < 100 nM | < 100 nM | < 100 nM |  |  |  |  |  |  | 
